Experimental data: ChEMBL document CHEMBL1201862, “PubChem BioAssay data set” (2004)
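Following 48 hours of exposure in 96-well plates, responses at five concentrations were used to interpolate endpoints linearly. At the GI50, growth is halved.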 Activity calls are given as the source filed them. Rule as the data show it: active = GI50 up to about 1.1 µM and inactive = higher.

Experiments:
Assay in all cases: NCI tumour cell line growth inhibition, 48 h
SF-295 = system: SF-295
NCI/ADR-RES = system: NCI/ADR-RES
HOP-62 = system: HOP-62
SK-MEL-2 = system: SK-MEL-2
LOX IMVI = system: LOX IMVI
HCC 2998 = system: HCC 2998
DU-145 = system: DU-145
MDA-MB-231 = system: MDA-MB-231
KM12 = system: KM12
MDA-MB-435 = system: MDA-MB-435
SNB-75 = system: SNB-75
CAKI-1 = system: CAKI-1
HT-29 = system: HT-29
Hs-578T = system: Hs-578T
M14 = system: M14
COLO 205 = system: COLO 205
HOP-92 = system: HOP-92
IGROV-1 = system: IGROV-1
T47D = system: T47D
NCI-H522 = system: NCI-H522

SMILES	GI50 (SF-295)	GI50 (NCI/ADR-RES)	GI50 (HOP-62)	GI50 (SK-MEL-2)	GI50 (LOX IMVI)	GI50 (HCC 2998)	GI50 (DU-145)	GI50 (MDA-MB-231)	GI50 (KM12)	GI50 (MDA-MB-435)	GI50 (SNB-75)	GI50 (CAKI-1)	GI50 (HT-29)	GI50 (Hs-578T)	GI50 (M14)	GI50 (COLO 205)	GI50 (HOP-92)	GI50 (IGROV-1)	GI50 (T47D)	GI50 (NCI-H522)
OC1CCN2Cc3ccccc3N=C12 (stereo not given)	> 100 µM (inactive)	> 100 µM (inactive)	> 100 µM (inactive)	> 100 µM (inactive)	> 100 µM (inactive)	> 100 µM (inactive)	> 100 µM (inactive)	> 100 µM (inactive)	> 100 µM (inactive)	> 100 µM (inactive)	> 100 µM (inactive)	> 100 µM (inactive)	> 100 µM (inactive)	> 100 µM (inactive)	> 100 µM (inactive)	> 100 µM (inactive)	> 100 µM (inactive)			
O=S(=O)(c1ccccc1)N1CN2CN(C1)CN(S(=O)(=O)c1ccccc1)C2	> 100 µM (inactive)	> 100 µM (inactive)	> 100 µM (inactive)	> 100 µM (inactive)	> 100 µM (inactive)	> 100 µM (inactive)	> 100 µM (inactive)	> 100 µM (inactive)	> 100 µM (inactive)	> 100 µM (inactive)	22.7 µM (inactive)	> 100 µM (inactive)	> 100 µM (inactive)		> 100 µM (inactive)	> 100 µM (inactive)	> 100 µM (inactive)	> 100 µM (inactive)		
CC1=CC(=O)/C(=C/NC(=S)NCCc2ccccc2)C(=O)O1	> 100 µM (inactive)	> 100 µM (inactive)	> 100 µM (inactive)	> 100 µM (inactive)	30.1 µM (inactive)	> 100 µM (inactive)	> 100 µM (inactive)	> 100 µM (inactive)	> 100 µM (inactive)	> 100 µM (inactive)	75 µM (inactive)	> 100 µM (inactive)	> 100 µM (inactive)		> 100 µM (inactive)	> 100 µM (inactive)	> 100 µM (inactive)	> 100 µM (inactive)	> 100 µM (inactive)	
CC/C(=C/OC)P1(=O)OC(C)(C)CN1C(C)(C)C (stereo not given)	> 100 µM (inactive)	> 100 µM (inactive)	> 100 µM (inactive)	> 100 µM (inactive)	> 100 µM (inactive)	> 100 µM (inactive)	> 100 µM (inactive)	> 100 µM (inactive)	> 100 µM (inactive)	> 100 µM (inactive)		> 100 µM (inactive)	> 100 µM (inactive)		> 100 µM (inactive)	> 100 µM (inactive)		> 100 µM (inactive)	> 100 µM (inactive)	
CCN(CC)CC1CN=C(N)O1 (stereo not given)	> 100 µM (inactive)	> 100 µM (inactive)	> 100 µM (inactive)	> 100 µM (inactive)	> 100 µM (inactive)	> 100 µM (inactive)	> 100 µM (inactive)	> 100 µM (inactive)	> 100 µM (inactive)	> 100 µM (inactive)	> 100 µM (inactive)	> 100 µM (inactive)			> 100 µM (inactive)	> 100 µM (inactive)	> 100 µM (inactive)	> 100 µM (inactive)	> 100 µM (inactive)	
CC(C)(C)c1cc(C(C)(C)C)c(SS(=O)(=O)O)c(O)c1O	31.8 µM (inactive)	58.1 µM (inactive)	54.6 µM (inactive)	21.2 µM (inactive)	35.4 µM (inactive)		62.5 µM (inactive)	52.7 µM (inactive)	41.8 µM (inactive)	23.9 µM (inactive)	34.5 µM (inactive)	52.2 µM (inactive)	41.1 µM (inactive)		41.3 µM (inactive)	46.5 µM (inactive)	84.1 µM (inactive)	55.7 µM (inactive)	33.7 µM (inactive)	
Cc1cc(C)c(N[S+]([O-])c2cccc(Cl)c2)c(C)c1 (stereo not given)	> 100 µM (inactive)	> 100 µM (inactive)	> 100 µM (inactive)				> 100 µM (inactive)		> 100 µM (inactive)	> 100 µM (inactive)			> 100 µM (inactive)		> 100 µM (inactive)	> 100 µM (inactive)	> 100 µM (inactive)			
Nc1ccc(C(=O)NN2C(=O)C(Cl)C2c2ccccc2O)cc1 (stereo not given)	47.2 µM (inactive)		65.2 µM (inactive)	> 100 µM (inactive)	18.8 µM (inactive)	18.7 µM (inactive)			82.6 µM (inactive)		52.2 µM (inactive)	47.8 µM (inactive)	> 100 µM (inactive)		24 µM (inactive)	43.2 µM (inactive)	> 100 µM (inactive)	> 100 µM (inactive)		62.2 µM (inactive)
C[N+](C)(C)CC(=O)N/N=C(\Cc1nc2ccc([N+](=O)[O-])cc2nc1O)C(=O)Nc1nc2ccc([N+](=O)[O-])cc2s1	51.8 µM (inactive)	63.4 µM (inactive)	57.9 µM (inactive)	28.1 µM (inactive)	35.6 µM (inactive)	36.9 µM (inactive)	39.4 µM (inactive)	> 100 µM (inactive)	45.2 µM (inactive)	85.1 µM (inactive)	21.5 µM (inactive)	24.6 µM (inactive)	45.6 µM (inactive)		55.1 µM (inactive)	48.8 µM (inactive)	29 µM (inactive)	23.5 µM (inactive)	21.9 µM (inactive)	13.3 µM (inactive)
COc1cc(OC2OC(COC(=O)c3cc(O)c(O)c(O)c3)C(O)C(O)C2O)ccc1O (stereo not given)	78.7 µM (inactive)	> 100 µM (inactive)	> 100 µM (inactive)	> 100 µM (inactive)	29.5 µM (inactive)	> 100 µM (inactive)	> 100 µM (inactive)	34.5 µM (inactive)	88.1 µM (inactive)	24.4 µM (inactive)	> 100 µM (inactive)	69.2 µM (inactive)	70.5 µM (inactive)	> 100 µM (inactive)	90.8 µM (inactive)	> 100 µM (inactive)	32.7 µM (inactive)	> 100 µM (inactive)		48 µM (inactive)
CC(C)(C)OC(=O)Cc1ccc2c(ccn2Cc2ccccc2)c1	75.2 µM (inactive)		> 100 µM (inactive)	> 100 µM (inactive)	47.4 µM (inactive)	> 100 µM (inactive)			64.3 µM (inactive)		> 100 µM (inactive)	> 100 µM (inactive)	17.2 µM (inactive)		> 100 µM (inactive)	44.1 µM (inactive)	79.3 µM (inactive)	> 100 µM (inactive)		44.2 µM (inactive)
O=S(=O)(O)c1ccc(-c2c3nc(c(-c4ccc(S(=O)(=O)O)cc4)c4ccc([nH]4)c(-c4ccc(S(=O)(=O)O)cc4)c4nc(c(-c5ccc(S(=O)(=O)O)cc5)c5ccc2[nH]5)C=C4)C=C3)cc1	42.7 µM (inactive)		> 100 µM (inactive)	27.1 µM (inactive)	> 100 µM (inactive)	> 100 µM (inactive)			> 100 µM (inactive)		17.3 µM (inactive)	> 100 µM (inactive)	> 100 µM (inactive)		90.6 µM (inactive)	> 100 µM (inactive)	21.8 µM (inactive)	> 100 µM (inactive)		26.5 µM (inactive)
CC(C)=CCC[C@]1(C)C=Cc2c(O)c3c(c(CC=C(C)C)c2O1)O[C@]12C(=C[C@@H]4CC1C(C)(C)O[C@@]2(C/C=C(/C)C(=O)O)C4=O)C3=O	2.3 µM (inactive)	1.92 µM (inactive)	1.69 µM (inactive)	2.02 µM (inactive)	0.442 µM (active)	1.34 µM (inactive)		1.07 µM (active)	1.02 µM (active)	1.03 µM (active)	1.63 µM (inactive)	0.973 µM (active)	0.461 µM (active)	0.673 µM (active)	1.57 µM (inactive)		1.78 µM (inactive)	1.43 µM (inactive)		0.406 µM (active)
CC(=O)/C=C/c1ccc(C)cc1	> 100 µM (inactive)		> 100 µM (inactive)	> 100 µM (inactive)	> 100 µM (inactive)	> 100 µM (inactive)			> 100 µM (inactive)		> 100 µM (inactive)	> 100 µM (inactive)	> 100 µM (inactive)		> 100 µM (inactive)	> 100 µM (inactive)	> 100 µM (inactive)	> 100 µM (inactive)		> 100 µM (inactive)
C[C@H](CCC(=O)O)[C@H]1CC[C@H]2[C@@H]3[C@H](O)C[C@@H]4C[C@H](O)CC[C@]4(C)[C@H]3CC[C@]12C [CHENODIOL]		36.6 µM (inactive)	37.2 µM (inactive)	20 µM (inactive)	32.5 µM (inactive)	28.9 µM (inactive)	43.2 µM (inactive)	49.3 µM (inactive)	33.3 µM (inactive)	37 µM (inactive)	19.6 µM (inactive)	37.2 µM (inactive)	24.3 µM (inactive)		27.7 µM (inactive)	22.8 µM (inactive)	30.3 µM (inactive)	27 µM (inactive)	40.2 µM (inactive)	25.5 µM (inactive)
CC1=C2O[C@]3(O)C=C2C(=C(O)C1=O)[C@@H]1O[C@H](CC[C@H](C)/C=C(\C)C[C@@H](C)C[C@@H]3C)[C@H](C)[C@H](O)[C@H]1C [KENDOMYCIN]	1.22 µM (inactive)	0.311 µM (active)	0.356 µM (active)	0.247 µM (active)	0.24 µM (active)	0.167 µM (active)	0.265 µM (active)	0.151 µM (active)	0.661 µM (active)	0.145 µM (active)	0.394 µM (active)	0.541 µM (active)	0.181 µM (active)	0.289 µM (active)	0.161 µM (active)	0.125 µM (active)	0.13 µM (active)	0.163 µM (active)		0.218 µM (active)
